Data from patent US10730868B2, “Bicyclic heteroaryl substituted compounds” (BRISTOL-MYERS SQUIBB COMPANY, priority 2016, dated 2020).

target: PAR4 (Homo sapiens (Human), UniProt Q96RI0); test: PAR4 FLIPR assay (antagonism of agonist-peptide-induced calcium mobilization); assay type: cell-based; details: H-Ala-Phe(4-F)-Pro-Gly-Trp-Leu-Val-Lys-Asn-Gly-NH2-induced intracellular calcium mobilization, PAR4-expressing HEK293 cells; read-out: PAR4 FLTPR assay (IC50)
Source text: The Fluorometric Imaging Plate Reader (FLIPR) assay is an exemplary in vitro assay for measuring the activity of the PAR4 antagonists of the present invention. In this assay, intracellular calcium mobilization is induced in PAR4 expressing cells by a PAR4 agonist and calcium mobilization is monitored.
HEK293 cells stably expressing PAR4 were generated by a standard method of transfection of human PAR4 (F2R23) cDNA expression vector and selected based on PAR4 protein expression or mRNA expression. […] These cells also express endogenous PAR1 and can elicit calcium signal upon stimulation with PAR1 agonist peptide. Therefore, the same cells were also used to determine selectivity against PAR1 and agonist activity for both receptors. Cells from HEK293 PAR4 Clone 1.2A (BMS Arctic ID 383940) were propagated and used for calcium mobilization studies.
FLIPR-based calcium mobilization assay in HEK293 cells was used to measure PAR4 antagonism agonism, and selectivity against PAR1. The activity of the PAR4 antagonists of the present invention were tested in PAR4 expressing cells by monitoring H-Ala-Phe(4-F)-[…]NH2-induced intracellular calcium mobilization. Counter screens for agonist activity and PAR1 antagonist activity were also performed. Briefly, PAR/PAR4-expressing HEK293 cells were grown in DMEM (Life Technology, Grand Island, N.Y.) containing 10% heat-inactivated FBS, 1% Penicillin-Streptomycin, 10 μg/mL blasticidin, and 100 μg/mL Zeocin at 37° C. with 5% CO2. Cells were plated overnight prior to the experiment in a black 384-well Purecoat Amine clear bottom plate (Becton Dickinson Biosciences, San Jose, Calif.) at 10,000 cells/well in 30 μL growth medium and incubated in a humidified chamber at 37° C. with 5% CO2 overnight. Prior to compound addition, the cell medium was replaced with 40 μL of 1× calcium and magnesium-containing Hank's Balanced Saline Solution (HBSS) (with 20 mM HEPES) and 1:1000 diluted fluorescent calcium indicator (Codex Biosolutions, Gaithersburg, Md.). After a 30 minute incubation period at 37° C. and a further 30 minute incubation and equilibration period at room temperature, 20 μL test compound (diluted in 1×HBSS buffer) was added at various concentrations at 0.17% dimethyl sulfoxide (DMSO) final concentration. Changes in fluorescence intensity were measured using a Functional Drug Screening System (FDSS, Hamamatsu, Japan) to determine agonist activities. The cells were then incubated for 30 minutes at room temperature followed by addition of 20 μL of agonist peptide for antagonist activity measurement. […] Compound potency was derived from 11-point concentration-response curves.

PAR4, sequence (Q96RI0 18-385): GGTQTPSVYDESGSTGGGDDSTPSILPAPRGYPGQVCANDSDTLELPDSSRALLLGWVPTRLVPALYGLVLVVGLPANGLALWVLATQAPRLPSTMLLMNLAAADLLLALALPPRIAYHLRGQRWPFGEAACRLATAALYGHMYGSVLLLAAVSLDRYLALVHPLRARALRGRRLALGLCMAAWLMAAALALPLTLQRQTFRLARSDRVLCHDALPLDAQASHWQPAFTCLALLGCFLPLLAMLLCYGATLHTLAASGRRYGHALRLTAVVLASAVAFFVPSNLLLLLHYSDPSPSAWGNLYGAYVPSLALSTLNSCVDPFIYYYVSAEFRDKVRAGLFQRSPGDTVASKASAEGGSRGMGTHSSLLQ

| Structure (SMILES) | IC50 [nM] |
| --- | --- |
| COc1cnc2c(-c3nc4cc(F)c(O[C@@H]5CC[C@@H]5OC(=O)Nc5cnc(OCCO)nc5)cc4s3)cc(C#N)cc2n1 [Example 80] | 7 |
| CCOc1cnc2c(-c3nc4cc(F)c(O[C@@H]5CC[C@@H]5OC(=O)Nc5cnc(OCCO)nc5)cc4s3)cc(Cl)cc2c1 [Example 77] | 9.2 |
| COc1cnc2c(-c3nc4cc(F)c(O[C@@H]5CC[C@@H]5OC(=O)Nc5cnc(OC[C@@H](C)O)nc5)cc4s3)cc(C)cc2n1 (stereo in doubt) [Example 62, cis-2-((5-fluoro-2-(2-methoxy-7-methylquinoxalin-5-yl)benzo[d]thiazol-6-yl)oxy)cyclobutyl (2-((R)-2-hydroxypropoxy)pyrimidin-5-yl)carbamate (Homochiral)] | 6.9 |
| COc1cnc2c(-c3nc4cc(F)c(O[C@H]5CC(F)(F)CC[C@H]5OC(=O)Nc5cnc(C)nc5)cc4s3)cc(C)cc2n1 [Example 4] | 1.9 |
| COc1cnc2c(-c3nc4cc(F)c(O[C@H]5CCC[C@H]5OC(=O)Nc5ccnc(C)c5)cc4s3)cc(C)cc2n1 [Example 30] | 2.6 |
| COc1cnc2c(-c3nc4cc(F)c(O[C@@H]5CC(F)(F)C[C@@H]5OC(=O)Nc5cnc(C)nc5)cc4s3)cc(C)cc2n1 (stereo in doubt) [Example 99, (cis)-4,4-difluoro-2-((5-fluoro-2-(2-methoxy-7-methylquinoxalin-5-yl)benzo[d]thiazol-6-yl)oxy)cyclopentyl (2-methylpyrimidin-5-yl)carbamate (Homochiral)] | 32 |
| COc1cnc2c(-c3nc4cc(F)c(O[C@H]5CC(F)(F)CC[C@H]5OC(=O)Nc5cnc(OCCO)nc5)cc4s3)cc(Cl)cc2c1 [Example 16, (1R,2S)-2-((2-(6-chloro-3-methoxyquinolin-8-vi)-5-fluorobenzo[d]thiazol-6-yl)oxy)-4,4-difluorocyclohexyl (2-(2-hydroxyethoxy)pyrimidin-5-yl)carbamate] | 1.3 |
| COc1cnc2c(-c3nc4cc(F)c(O[C@@H]5CC[C@@H]5OC(=O)Nc5cnc(OCCO)nc5)cc4s3)cc(C)cc2n1 [Example 68] | 0.75 |
| COc1cnc2c(-c3nc4cc(F)c(O[C@H]5CC[C@H]5OC(=O)Nc5cnc(OCCO)nc5)cc4s3)cc(C)cc2n1 [Example 64] | 1.9 |
| COc1cnc2c(-c3nc4cc(F)c(O[C@H]5CC(F)(F)CC[C@H]5OC(=O)Nc5ccc(CCO)nc5)cc4s3)cc(C)cc2n1 [Example 5] | 6.8 |
| COc1cnc2c(-c3nc4cc(F)c(O[C@H]5CC(F)(F)CC[C@H]5OC(=O)Nc5cnc(C)nc5)cc4s3)cc(Cl)cc2c1 [Example 17, (1R,2S)-2-((2-(6-chloro-3-methoxyquinolin-8-yl)-5-fluorobenzo[d]thiazol-6-yl)oxy)-4,4-difluorocyclohexyl (2-methylpyrimidin-5-yl)carbamate] | 4.1 |
| COc1cnc2c(-c3nc4cc(F)c(O[C@H]5CC(F)(F)CC[C@H]5OC(=O)Nc5ccc(C(=O)NCC(C)(C)O)nc5)cc4s3)cc(C)cc2n1 [Example 2] | 0.46 |
| COc1cnc2c(-c3nc4cc(F)c(O[C@@H]5CC[C@@H]5OC(=O)Nc5cnc(CCO)nc5)cc4s3)cc(C)cc2n1 [Example 70] | 9 |
| COc1cnc2c(-c3nc4cc(F)c(O[C@H]5CCC[C@H]5OC(=O)Nc5ccc(C(=O)N(C)C)nc5)cc4s3)cc(C)cc2n1 [Example 50, (1R,2S)-2-((5-fluoro-2-(2-methoxy-7-methylquinoxalin-5-yl)benzo[d]thiazol-6-yl)oxy)cyclopentyl (6-(dimethylcarbamoyl)pyridin-3-yl)carbamate] | 3.4 |
| COc1ccc(NC(=O)O[C@@H]2CC[C@@H]2Oc2cc3sc(-c4cc(C)cc5nc(OC)cnc45)nc3cc2F)cn1 [Example 73] | 0.5 |
| COc1ccc(NC(=O)O[C@@H]2CCC[C@@H]2Oc2cc3sc(-c4cc(C)cc5nc(OC)cnc45)nc3cc2F)nc1 [Example 24] | 7.8 |
| COc1cnc2c(-c3nc4cc(F)c(O[C@@H]5CC[C@@H]5OC(=O)Nc5cnc(OCCO)nc5)cc4s3)cc(F)cc2c1 [Example 81] | 9.2 |
| COc1cnc2c(-c3nc4cc(F)c(O[C@@H]5CC(F)(F)CC[C@@H]5OC(=O)Nc5cnc(C)nc5)cc4s3)cc(C)cc2n1 [Example 13] | 110 |

same assay, conditions: H-Ala-Phe(4-F)-[…]NH2-induced intracellular calcium mobilization, PAR4-expressing HEK293 cells; read-out: PAR4 FLTPR assay (IC50)

| Structure (SMILES) | IC50 [nM] |
| --- | --- |
| COc1cnc2c(-c3nc4cc(F)c(O[C@@H]5CN(C(=O)OC(C)(C)C)CC[C@@H]5OC(=O)Nc5cnc(C)nc5)cc4s3)cc(C)cc2n1 (racemic) [Example 91, rac-cis-tert-butyl 3-((5-fluoro-2-(2-methoxy-7-methylquinoxalin-5-yl)benzo[d]thiazol-6-yl)oxy)-4-(((2-methylpyrimidin-5-yl)carbamoyl)oxy)piperidine-1-carboxylate] | 3.8 |
| COc1cnc2c(-c3nc4cc(F)c(O[C@@H]5CCC[C@@H]5OC(=O)Nc5cccnc5)cc4s3)cc(CO)cc2n1 (racemic) [Example 44, rac-cis-2-((5-fluoro-2-(7-(hydroxymethyl)-2-methoxyquinoxalin-5-yl)benzo[d]thiazol-6-yl)oxy)cyclopentyl pyridin-3-ylcarbamate] | 25 |
| COc1cnc2c(-c3nc4cc(F)c(O[C@@H]5CCCC[C@@H]5OC(=O)Nc5cccnc5)cc4s3)cc(C)cc2n1 (racemic) [Example 55, rac-cis-2-((5-fluoro-2-(2-methoxy-7-methylquinoxalin-5-yl)benzo[d]thiazol-6-yl)oxy) cyclohexyl pyridin-3-ylcarbamate] | 1.4 |
| COc1ccc(NC(=O)O[C@@H]2CCC[C@H]2Oc2cc3sc(-c4cc(C)cc5nc(OC)cnc45)nc3cc2F)cn1 (racemic) [Example 28] | 96 |
| COc1ccc(NC(=O)O[C@H]2CCOC[C@H]2Oc2cc3sc(-c4cc(C)cc5nc(OC)cnc45)nc3cc2F)cn1 (racemic) [Example 88, rac-cis-3-((5-fluoro-2-(2-methoxy-7-methylquinoxalin-5-yl)benzoldithiazol-6-yl)oxy)tetrahydro-2H-pyran-4-yl (6-methoxypyridin-3-yl)carbamate] | 21 |
| COc1cnc2c(-c3nc4cc(F)c(O[C@H]5CCC[C@H]5OC(=O)Nc5cccnc5)cc4s3)cc(C)cc2n1 (racemic) [Example 38] | 9.4 |
| COc1cnc2c(-c3nc4cc(F)c(O[C@H]5CC(C)(C)C[C@H]5OC(=O)Nc5cnc(C)nc5)cc4s3)cc(C)cc2n1 (single isomer, unassigned; enantiomer 1) [Example 84, (cis)-2-((5-fluoro-2-(2-methoxy-7-methylquinoxalin-5-yl)benzo[d]thiazol-6-yl)oxy)-4,4-dimethylcyclopentyl (2-methylpyrimidin-5-yl)carbamate Enantiomer 1] | 5.4 |
| COc1cnc2c(-c3nc4cc(F)c(O[C@@H]5CN(C(=O)OCc6ccccc6)C[C@H]5O)cc4s3)cc(C)cc2n1 (racemic) [Example 90, rac-trans-benzyl 3-((5-fluoro-2-(2-methoxy-7-methylquinoxalin-5-yl)benzo[d]thiazol-6-yl)oxy)-4-hydr oxopyrrolidine-1-carboxylate] | 330 |
| COc1cnc2c(-c3nc4cc(F)c(O[C@@H]5CC(F)(F)C[C@@H]5OC(=O)Nc5cnc(C)nc5)cc4s3)cc(Cl)cc2c1 (racemic) [Example 98, rac-cis-2-((2-(6-chloro-3-methoxyquinolin-8-yl)-5-fluorobenzo[d]thiazol-6-yl)oxy)-4,4-difluorocyclopentyl (2-methylpyrimidin-5-yl)carbamate] | 14 |
| COc1ccc(NC(=O)O[C@H]2CCC(F)(F)CC2Oc2cc3sc(-c4cc(C)cc5nc(OC)cnc45)nc3cc2F)cn1 (mixture of isomers) [Example 14] | 2.4 |
| COc1cnc2c(-c3nc4cc(F)c(O[C@H]5CCC[C@H]5OC(=O)Nc5cnc(C)nc5)cc4s3)cc(C)cc2n1 (racemic) [Example 35] | 2.5 |
| COc1ccc(NC(=O)O[C@H]2CCCC[C@H]2Oc2cc3sc(-c4cc(C)cc5nc(OC)cnc45)nc3cc2F)cn1 (racemic) [Example 57, rac-cis-2-((5-fluoro-2-(2-methoxy-7-methylquinoxalin-5-yl)benzo[d]thiazol-6-yl)oxy) cyclohexyl (6-methoxypyridin-3-yl)carbamate] | 6.1 |
| COc1ccc(NC(=O)O[C@H]2CCOC[C@H]2Oc2cc3sc(-c4cc(C#N)cc5nc(OC)cnc45)nc3cc2F)cn1 (racemic) [Example 89, rac-cis-3-((2-(7-cyano-2-methoxyquinoxalin-5-yl)-5-fluorobenzo[d]thiazol-6-yl)oxy)tetrahydro-2H-pyran-4-yl (6-methoxypyridin-3-yl)carbamate] | 3.8 |
